Each structure is given as a SMILES string.

Experimental findings from article PMC11800159, “Insertion of a Divergent GAF-like Domain Defines a Novel Family of YcgR Homologues That Bind c-di-GMP in Leptospirales” (ACS Omega, 2025) are described below.

The experiment has as its target T1, YcgRLIC_11920.
T1 construct: gene LIC_11920; full-length protein, N-terminal 6x histidine tag
Briefly: ITC ([…] °C; […] at […] °C), […] c-di-GMP:protein stoichiometry. It counts as binding.

Usually Kd stands for the constant that tells how readily two partners part at equilibrium. Lower therefore signals tighter binding. As to `Nc1nc2c(ncn2[C@@H]2O[C@@H]3COP(=O)(O)O[C@H]4[C@@H](O)[C@H](n5cnc6c(=O)[nH]c(N)nc65)O[C@@H]4COP(=O)(O)O[C@H]3[C@H]2O)c(=O)[nH]1` [c-di-GMP], the affinity, expressed as Kd, was 60 nM. That is a double-digit nanomolar value.
